Where two headings read alike, the source gives them in different places.
Columns and labels:
[1] = biological target: Gal4 DNA binding domain fused to the LBD of LXRβ in HEK293 cells (Homo sapiens (Human), UniProt P55055); assay: cell-based
[2] = biological target: T1, LXR β LBD protein (Homo sapiens (Human), UniProt P55055); assay: biochemical; type: binding; conditions: read-out: LXRβ Binding Ki
Target sequence in this assay (P55055 222-460 limits assumed): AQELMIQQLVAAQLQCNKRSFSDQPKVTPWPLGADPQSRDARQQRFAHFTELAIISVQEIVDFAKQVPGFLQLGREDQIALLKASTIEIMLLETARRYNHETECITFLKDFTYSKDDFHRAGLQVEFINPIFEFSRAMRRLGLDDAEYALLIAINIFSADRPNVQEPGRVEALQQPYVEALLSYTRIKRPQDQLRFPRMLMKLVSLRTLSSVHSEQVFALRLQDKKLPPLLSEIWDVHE

[3] = biological target: T1, LXR β LBD protein; assay: biochemical; type: biochemical; conditions: for EC50: read-out: FRET LXRβ EC50
Description: Two μL of the DMSO solutions were transferred to the plate and 38 μL of 10 nM LXRα-LBD or LXRβ-LBD (2×) were added immediately to the wells. The plate was shaken for 5 min at rt on an orbital micro shaker (DPC MicroMix® 5), after which 40 μL of 200 nM fluorescein-SRC2-3 peptide and 20 nM Terbium-anti-GST-antibody (Cat# PV3550, Life Technologies, Grand Island, N.Y.) solution (4×) were added to all. The plate was sealed and shaken for 2 min at rt, and incubated at rt for 2 h without agitation. […] The delay and window times were set at 100 and 200 microseconds, respectively. […] The percent control vs. compound concentration data were fit into a four-parameter model, and EC50 values were calculated from the fit as the concentrations corresponding to the inflection points on the concentration-response curves.
Target sequence in this assay (P55055 222-460): as the sequence (P55055 222-460 limits assumed) above

[4] = biological target: Gal4 DNA binding domain fused to the LBD of LXRα in HEK293 cells (Homo sapiens (Human), UniProt Q13133); assay: LXR luciferase transcriptional reporter gene assay, agonist mode, LXRα; type: cell-based
[5] = biological target: T2, LXR α LBD protein (Homo sapiens (Human), UniProt Q13133); assay: Human LXRα coactivator recruitment FRET assay, agonist mode; type: biochemical
Method in brief: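 LXRα- or LXRβ-LBD at 10 nM (2×) mixed with compound in DMSO, then fluorescein-SRC2-3 peptide 200 nM and Tb-anti-GST antibody 20 nM (4×) added; 2 h at rt. Time-resolved FRET read, 100 µs delay, 200 µs window; EC50 from four-parameter fit of percent control.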

[6] = biological target: T2, LXR α LBD protein; assay: LXR α radioligand binding assay (SPA, competition with [3H]TO901317); conditions: read-out: LXRα Binding Ki
[7] = agonist mode, read-out: Cell LXRβ EC50
[8] = agonist mode, read-out: Cell LXRα EC50
[9] = Biological Test Example 3, agonist mode

Chain of Gal4 DNA binding domain fused to the LBD of LXRβ in HEK293 cells (P55055 222-460 limits assumed): as above
T2 sequence (Q13133 209-447): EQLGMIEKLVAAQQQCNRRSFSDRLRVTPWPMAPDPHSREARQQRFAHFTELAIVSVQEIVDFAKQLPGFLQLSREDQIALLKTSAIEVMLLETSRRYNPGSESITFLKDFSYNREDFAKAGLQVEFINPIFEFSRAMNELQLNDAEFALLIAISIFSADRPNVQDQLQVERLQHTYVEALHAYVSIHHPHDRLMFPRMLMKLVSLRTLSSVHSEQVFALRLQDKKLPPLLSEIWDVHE
Chain of Gal4 DNA binding domain fused to the LBD of LXRα in HEK293 cells (Q13133 209-447): as above

SMILES	Cell LXRβ efficacy ([1]; agonist mode)	Ki [2]	FRET LXRβ efficacy ([3]; agonist mode)	Cell LXRα efficacy [4]	EC50 ([4]; read-out: Cell LXRα EC50)	EC50 ([5]; agonist mode)	FRET LXRα efficacy ([5]; agonist mode)	Ki [6]	EC50 [1]	EC50 [3]	EC50 [4, 8]	further results
CS(=O)(=O)c1cc(N2CCN(C[C@H]3CC[C@H](C(F)(F)F)CC3)[C@@H](c3ccccc3)C2)ccc1C(N)=O (single isomer, unassigned) [17-37]	24%	1010 nM	85%	16011 (50) %	16000 nM	605 nM	53%	3210 nM	–	–	–	EC50 [1, 7]: 3530 nM; EC50 ([3]; agonist mode): 355 nM
CS(=O)(=O)c1cc(N2CCN(C[C@H]3CC[C@@H](C(F)(F)F)CC3)[C@H](c3ccccc3)C2)ccc1C(N)=O (single isomer, unassigned) [17-38]	18%	753 nM	71%	4828 (13) %	4830 nM	3370 nM	34%	3130 nM	–	–	–	EC50 [1, 7]: 1790 nM; EC50 ([3]; agonist mode): 561 nM
CS(=O)(=O)c1cccc(N2CCN(Cc3ccc(C(F)(F)F)cc3)[C@@H](c3ccccc3)C2)c1 (single isomer, unassigned) [46-15]	–	158 nM	–	2993 (28) %	–	1520 nM	28%	–	720 nM	418 nM	2990 nM	Cell LXRβ efficacy [1]: 720 (26) %; FRET LXRβ efficacy [3]: 418 (45) %
CS(=O)(=O)c1cccc(N2CCN(Cc3ccc(OC(F)(F)F)cc3)[C@@H](c3ccccc3)C2)c1 (single isomer, unassigned) [46-23]	–	112 nM	–	4367 (45) %	4370 nM	7040 nM	47%	1040 nM	1430 nM	710 nM	–	Cell LXRβ efficacy [1]: 1432 (29) %; FRET LXRβ efficacy [3]: 710 (57) %
Cc1ccccc1[C@H]1CN(c2cccc(S(C)(=O)=O)c2)CCN1Cc1ccc(C(F)(F)F)nc1 (single isomer, unassigned) [46-46]	1989 (4) %	1980 nM	1214 (51) %	–	–	6690 nM	30%	> 3330 nM	1990 nM	1210 nM	> 20000 nM	–
CS(=O)(=O)c1cccc(N2CCN(Cc3ccc(C(F)(F)F)nc3)[C@@H](c3ccccc3Cl)C2)c1 (single isomer, unassigned) [46-57]	–	61 nM	–	1244 (42) %	1240 nM	499 nM	41%	188 nM	383 nM	55 nM	–	Cell LXRβ efficacy [1]: 383 (38) %; FRET LXRβ efficacy [3]: 55 (56) %
CS(=O)(=O)c1cccc(N2CCN(C[C@H]3CCN(CC(F)(F)F)C3)[C@@H](c3ccccc3)C2)c1 (single isomer, unassigned) [48-63]	–	–	–	–	–	–	–	> 3330 nM	> 20000 nM	1550 nM	–	Ki ([2]; Biological Test Example 1): > 2500 nM; FRET LXRβ efficacy [3, 9]: 1553 (30) %; EC50 ([4]; Biological Test Example 2, agonist mode, read-out: Cell LXRα EC50): > 20000 nM; EC50 [5, 9]: 11700 nM; FRET LXRα efficacy [5, 9]: 14%
CS(=O)(=O)c1cc(N2CCN(C[C@H]3CC[C@H](C(F)(F)F)CC3)[C@@H](c3ccccc3)C2)ccc1C#N (single isomer, unassigned) [50-4]	–	–	–	3065 (19) %	3060 nM	–	–	2720 nM	–	–	–	Cell LXRβ efficacy ([1]; Biological Test Example 2, agonist mode): 23%; EC50 ([1]; Biological Test Example 2, agonist mode, read-out: Cell LXRβ EC50): 1280 nM; Ki ([2]; Biological Test Example 1): 516 nM; FRET LXRβ efficacy [3, 9]: 82%; EC50 [3, 9]: 1630 nM; EC50 [5, 9]: 9560 nM; FRET LXRα efficacy [5, 9]: 69%
CC(C)[C@@H]1CN(c2ccc(F)c(S(C)(=O)=O)c2)CCN1C(=O)OC(C)(C)C [2-1, tert-butyl (R)-4-(4-fluoro-3-(methylsulfonyl)phenyl)-2-isopropylpiperazine-1-carboxylate]	684 (36) %	209 nM	74%	5252 (61) %	5250 nM	901 nM	48%	–	684 nM	–	–	EC50 ([3]; agonist mode): 56 nM
CS(=O)(=O)c1cccc(N2CCN(c3nccc(C(F)(F)F)n3)[C@H](c3ccc(F)cc3)C2)c1 [8-1, (R)-2-(2-(4-fluorophenyl)-4-(3-(methylsulfonyl)phenyl)piperazin-1-yl)-4-(trifluoromethyl)pyrimidine]	493 (31) %	36 nM	62 (75) %	2160 (16) %	–	665 nM	41%	454 nM	493 nM	62 nM	2160 nM	–
CC(C)(O)c1ccc(CN2CCN(c3cccc(S(C)(=O)=O)c3)C[C@@H]2c2ccccc2)cc1 [10-12, (S)-2-(4-((4-(3-(methylsulfonyl)phenyl)-2-phenylpiperazin-1-yl)methyl)phenyl)propan-2-ol]	–	> 2500 nM	1141 (33) %	–	> 20000 nM	1370 nM	18%	> 3330 nM	> 20000 nM	1140 nM	–	–
CC(C)c1ccc(CN2CCN(c3cccc(S(C)(=O)=O)c3)C[C@H]2c2ccccc2)cc1 [46-7, (R)-1-(4-isopropylbenzyl)-4-(3-(methylsulfonyl)phenyl)-2-phenylpiperazine]	–	> 2500 nM	–	–	> 20000 nM	> 50000 nM	–	> 3330 nM	> 20000 nM	> 50000 nM	–	–
CS(=O)(=O)c1cccc(N2CCN(Cc3ccc(OC(F)F)cc3)[C@@H](c3ccccc3)C2)c1 [46-11, (S)-1-(4-(difluoromethoxy)benzyl)-4-(3-(methylsulfonyl)phenyl)-2-phenylpiperazine]	–	445 nM	–	3753 (7) %	–	17300 nM	–	3290 nM	> 20000 nM	600 nM	–	FRET LXRβ efficacy [3]: 600 (20) %; EC50 [4]: 3750 nM; FRET LXRα efficacy [5]: 17300 (33) %
CC(C)c1ccc(CN2CCN(c3cccc(S(C)(=O)=O)c3)CC2c2ccccc2)cn1 (stereo not shown) [46-42, 1-((6-isopropylpyridin-3-yl)methyl)-4-(3-(methylsulfonyl)phenyl)-2-phenylpiperazine]	5895 (9) %	> 2500 nM	1048 (53) %	–	–	984 nM	53%	> 3330 nM	5900 nM	1050 nM	> 20000 nM	–
CS(=O)(=O)c1cc(F)cc(N2CCN(Cc3ccc(C(F)(F)F)nc3)C(c3ccccc3)C2)c1 (stereo not shown) [46-53, 4-(3-fluoro-5-(methylsulfonyl)phenyl)-2-phenyl-1-((6-(trifluoromethyl)pyridin-3-yl)methyl)piperazine]	3280 (28) %	1520 nM	–	11138 (23) %	–	2590 nM	46%	> 3330 nM	3280 nM	924 nM	11100 nM	–
CS(=O)(=O)c1cccc(N2CCN(CC3CCCOC3)[C@@H](c3ccccc3)C2)c1 (stereo partly drawn) [51-4, (2S)-4-(3-(methylsulfonyl)phenyl)-2-phenyl-1-((tetrahydro-2H-pyran-3-yl)methyl)piperazine]	–	546 nM	–	–	> 20000 nM	–	–	> 3330 nM	> 20000 nM	> 50000 nM	–	EC50 [5, 9]: > 50000 nM
CS(=O)(=O)c1cccc(N2CCN(CC3CCOCC3)[C@@H](c3ccccc3)C2)c1 [51-5, (S)-4-(3-(methylsulfonyl)phenyl)-2-phenyl-1-((tetrahydro-2H-pyran-4-yl)methyl)piperazine]	–	–	–	–	> 20000 nM	–	–	> 3330 nM	> 20000 nM	> 50000 nM	–	Ki ([2]; Biological Test Example 1): 1020 nM; EC50 [5, 9]: > 50000 nM
CS(=O)(=O)c1cccc(N2CCN(C[C@H]3CC[C@@H](C(F)(F)F)CC3)[C@@H](c3ccc(F)cc3)C2)c1 [Cpd No 48-43, (S)-2-(4-fluorophenyl)-4-(3-(methylsulfonyl)phenyl)-1-(((1s,4R)-4-(trifluoromethyl)cyclohexyl)methyl)piperazine]	–	15 nM	–	240 (54) %	–	207 nM	48%	–	47 nM	27 nM	240 nM	Cell LXRβ efficacy [1]: 47 (32) %; FRET LXRβ efficacy [3]: 27 (43) %

Reference: US10144715B2, “Piperazine derivatives as liver X receptor modulators” (priority 2014, dated 2018)
